BindingDB's records for doi:10.1016/0006-8993(88)90805-0 (Veterans Administration Medical Center, 1988)
pKi: −log10 of the molar value.

Molecular target: Sodium-dependent serotonin transporter (Rattus norvegicus, UniProt P31652)
Sequence (P31652 whole entry): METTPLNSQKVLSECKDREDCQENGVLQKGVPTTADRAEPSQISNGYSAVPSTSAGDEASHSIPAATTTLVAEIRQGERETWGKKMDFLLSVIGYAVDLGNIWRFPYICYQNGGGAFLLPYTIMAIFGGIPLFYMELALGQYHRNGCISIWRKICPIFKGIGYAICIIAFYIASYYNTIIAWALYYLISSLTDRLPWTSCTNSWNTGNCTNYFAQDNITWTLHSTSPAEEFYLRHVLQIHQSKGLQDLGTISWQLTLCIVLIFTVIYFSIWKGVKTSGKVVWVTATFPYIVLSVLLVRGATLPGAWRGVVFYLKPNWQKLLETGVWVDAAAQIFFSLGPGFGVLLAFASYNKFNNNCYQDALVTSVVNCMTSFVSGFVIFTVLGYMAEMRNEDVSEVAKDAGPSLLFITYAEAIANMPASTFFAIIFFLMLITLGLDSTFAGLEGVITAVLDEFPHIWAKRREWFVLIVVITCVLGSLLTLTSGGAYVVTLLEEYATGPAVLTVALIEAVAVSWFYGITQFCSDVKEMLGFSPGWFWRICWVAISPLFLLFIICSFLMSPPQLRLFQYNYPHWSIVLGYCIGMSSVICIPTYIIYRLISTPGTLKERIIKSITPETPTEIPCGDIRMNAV

With `CC[C@@H](CO)NC(=O)[C@@H]1C=C2c3cccc4c3c(cn4C)C[C@H]2N(C)C1` the pKi was 5.43.
